# Experiments:
# [1] = test system: SHIP1+/+ and SHIP1−/− BMMCs; experiment: Intracellular signaling after FcεR1 crosslinking in BMMCs (immunoblot); type: cell-based, mouse; conditions: 10 μg/ml, 30 min; 20 ng/ml DNP-HSA 5 min
# Protocol: Stimulation of BMMCs by FcεR1 crosslinking. SHIP1+/+ and SHIP1−/− BMMCs were pre-loaded overnight in BMMC medium lacking IL-3 with 0.1 μg/ml anti-DNP IgE (SPE-7, Sigma, Oakville, Ont). For calcium flux measurements, the cells were incubated with 2 μM fura 2-acetoxymethyl ester (Molecular Probes, Eugene, Oreg.) in Tyrode's buffer at 23° C. for 45 min. The cells were then washed and incubated in the presence of vehicle control, LY294002 or AQX-016A 30 min prior to stimulation with the indicated concentration of DNP-human serum albumin (DNP-HSA). Calcium influx was then monitored by spectrofluorometry as described previously (19). Experiments were repeated at least 3 times. For analysis of intracellular signaling, cells were pre-loaded with anti-DNP IgE as above, pre-treated with AQX-016A or buffer control for 30 min at 37° C. and stimulated with 20 ng/ml DNP-HSA for 5 min. Total cell lysates were then prepared and analyzed for phospho-PKB, phospho-p38MAPK, phospho-MAPK, Grb-2 (Cell Signalling, Mississauga, Ont) and SHIP1 (18) by immunoblot analysis as described previously (20). Results are representative of 3 independent experiments.
# [2] = biological target: T1, wild-type SHIP1 enzyme (Mus musculus, UniProt Q9ES52); experiment: Scintillation proximity assay, wild-type SHIP1; type: binding; conditions: 5 μCi
# T1 construct: Full length, wild-type SHIP1 enzyme (wt); made in house; host or cells: 293T cells, transient transfection with pME18S-His-SHIP
# T1 sequence (Q9ES52 1-1191): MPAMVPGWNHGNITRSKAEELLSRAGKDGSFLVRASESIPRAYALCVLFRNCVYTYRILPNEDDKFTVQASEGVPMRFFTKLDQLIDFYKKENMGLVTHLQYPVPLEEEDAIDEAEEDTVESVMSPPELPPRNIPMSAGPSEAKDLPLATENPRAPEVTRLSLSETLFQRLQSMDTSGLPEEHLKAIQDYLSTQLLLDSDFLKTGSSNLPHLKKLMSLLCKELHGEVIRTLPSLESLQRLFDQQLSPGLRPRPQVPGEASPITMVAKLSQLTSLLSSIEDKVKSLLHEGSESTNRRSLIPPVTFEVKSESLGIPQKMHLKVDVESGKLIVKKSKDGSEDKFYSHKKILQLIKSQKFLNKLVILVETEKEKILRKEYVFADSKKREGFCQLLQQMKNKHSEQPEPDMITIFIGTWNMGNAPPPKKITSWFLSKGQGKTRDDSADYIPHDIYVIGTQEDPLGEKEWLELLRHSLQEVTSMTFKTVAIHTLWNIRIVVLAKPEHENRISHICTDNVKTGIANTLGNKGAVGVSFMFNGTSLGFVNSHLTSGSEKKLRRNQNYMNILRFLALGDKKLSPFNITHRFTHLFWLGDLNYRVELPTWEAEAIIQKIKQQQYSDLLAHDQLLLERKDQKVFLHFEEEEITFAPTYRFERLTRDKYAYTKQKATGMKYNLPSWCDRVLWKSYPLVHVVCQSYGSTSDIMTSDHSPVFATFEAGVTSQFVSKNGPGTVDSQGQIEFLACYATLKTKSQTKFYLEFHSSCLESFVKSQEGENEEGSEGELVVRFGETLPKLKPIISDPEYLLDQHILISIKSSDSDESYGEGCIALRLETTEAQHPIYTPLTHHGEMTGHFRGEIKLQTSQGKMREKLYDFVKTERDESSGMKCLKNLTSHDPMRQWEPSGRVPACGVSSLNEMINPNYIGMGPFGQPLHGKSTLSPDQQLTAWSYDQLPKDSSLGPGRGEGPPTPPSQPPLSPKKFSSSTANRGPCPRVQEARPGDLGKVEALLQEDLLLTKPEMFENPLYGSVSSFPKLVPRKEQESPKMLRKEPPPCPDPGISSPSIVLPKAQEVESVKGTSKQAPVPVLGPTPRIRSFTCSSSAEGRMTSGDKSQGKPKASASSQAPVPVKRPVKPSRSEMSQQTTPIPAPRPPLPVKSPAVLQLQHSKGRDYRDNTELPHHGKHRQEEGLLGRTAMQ
# Protocol: Scintillation Proximity Assays AQX-MN100 was radiolabeled with tritium by GE Healthcare (Piscataway, N.J.) to a specific activity of 42 Ci/mmole. Copper chelate (His-Tag) YSi YSi SPA Scintillation Beads (GE Healthcare ,Piscataway, NJ) were diluted in 0.25% BSA/TBS to 1.5 mg/mL and recombinant, His6-tagged protein added at the indicated concentrations: wild-type (1 pM), ΔC2 SHIP enzyme (1 pM) or C2 domain (10 nM). Protein was allowed to bind 1 h at 23° C., and 250 μg of beads were aliquoted per well of a 96-well plate. 5 μCi of [3H]-AQX-MN100 was added per well, the plate gently agitated for 30 min and the amount of bead associated radioactivity quantified by counting in a Wallac BETAPLATE™ plate scintillation counter. Results are representative of 3 independent experiments.
binding of [3H]-AQX-MN100 to wild-type SHIP1 [2],SMILES,"phosphorylation of PKB, p38MAPK and ERK, SHIP1+/+ vs SHIP1−/− BMMCs [1]"
,Cc1cc(O)c(O)c2c1[C@]1(C)CC[C@H]3C(C)(C)CCC[C@]3(C)[C@H]1C2 [AQX-016A],"inhibited the phosphorylation of PKB, p38MAPK and ERK in SHIP1+/+ but not in SHIP1−/−"
binds to wild-type SHIP1,Cc1cc(O)cc2c1[C@]1(C)CC[C@H]3C(C)(C)CCC[C@]3(C)[C@H]1C2 [AQX-MN100],

# From US8956824B2, “Methods for identifying allosteric modulators of ship polypeptides” (British Columbia Cancer Agency Branch, priority 2006, dated 2015)
